In PMC7466750, “Crystal structures of human ENPP1 in apo and bound forms” (Acta Crystallographica. Section D, Structural Biology, 2020):

How the values were obtained:
hENPP1 [1] = molecular target: T1, hENPP1 (Homo sapiens, UniProt P22413); test: Differential scanning fluorimetry (DSF) thermal shift of hENPP1; assay type: binding; settings: for ΔT m: DSF
T1 sequence (P22413 98-925): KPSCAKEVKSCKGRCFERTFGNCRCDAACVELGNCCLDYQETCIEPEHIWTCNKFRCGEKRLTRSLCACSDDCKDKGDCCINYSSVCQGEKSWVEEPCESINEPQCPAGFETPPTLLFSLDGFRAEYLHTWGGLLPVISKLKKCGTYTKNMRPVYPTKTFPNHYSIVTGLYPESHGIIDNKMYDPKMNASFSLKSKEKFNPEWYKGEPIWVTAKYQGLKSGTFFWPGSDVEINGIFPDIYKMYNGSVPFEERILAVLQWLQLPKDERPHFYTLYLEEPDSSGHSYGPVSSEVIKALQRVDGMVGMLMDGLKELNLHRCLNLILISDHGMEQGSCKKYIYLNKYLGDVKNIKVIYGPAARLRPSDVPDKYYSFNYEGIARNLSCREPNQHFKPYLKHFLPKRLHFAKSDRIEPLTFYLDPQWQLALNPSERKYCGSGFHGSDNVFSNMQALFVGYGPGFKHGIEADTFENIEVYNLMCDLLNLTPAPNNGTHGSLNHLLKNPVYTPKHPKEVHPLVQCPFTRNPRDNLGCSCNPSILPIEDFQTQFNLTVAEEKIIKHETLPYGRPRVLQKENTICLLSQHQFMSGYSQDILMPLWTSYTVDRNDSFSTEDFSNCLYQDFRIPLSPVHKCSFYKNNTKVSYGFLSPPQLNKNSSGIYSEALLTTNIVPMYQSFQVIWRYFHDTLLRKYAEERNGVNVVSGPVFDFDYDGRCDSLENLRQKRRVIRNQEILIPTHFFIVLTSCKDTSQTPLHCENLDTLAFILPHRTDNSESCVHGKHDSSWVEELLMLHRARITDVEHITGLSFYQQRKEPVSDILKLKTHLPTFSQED
Method: DSF experiments were performed using a Bio-Rad CFX96 thermocycler, with the fluorescence intensity measured with excitation and emission at 490 and 570 nm, respectively. Plates were heated from 20 to 100°C at a heating rate of 1.0°C min^−1. Protein was present at a final concentration of 15 µg ml^−1. The well volume was 20 µl. The buffer was 50 mM Tris–HCl pH 7.4, 150 mM NaCl, 50 µM ZnCl2. […] Ligands and controls were present in triplicate.

hENPP1 [2] = molecular target: T1, hENPP1; test: Surface plasmon resonance (SPR) binding to immobilised hENPP1 98–925, 1:1 steady-state affinity model; parameters: hENPP1^98–925 was coupled to the chip surface at 25°C; made in house; host or cells: 293-F cells (human), with 5 µM kifunensine
Method: The protein was diluted to 25 µg ml^−1 at pH 6.0 [10 mM 2-(N-morpholino)ethanesulfonic acid (MES), 0.005%(v/v) Tween 20] and injected to an immobilization level of 8–10 kRU. The surface was then blocked with 1 M ethanolamine pH 8.0 for 7 min. SPR experiments were performed at 25°C in SPR running buffer consisting of 50 mM Tris pH 7.4, 150 mM NaCl, 50 µM ZnCl2, 0.005%(v/v) Tween 20, 2%(v/v) DMSO. When performing dose–response testing, analytes were serially diluted (twofold or threefold), injected for 30–90 s contact time and allowed to dissociate back to baseline. The flow rate was 60 µl min^−1. Binding sensorgrams were processed, solvent-corrected and double-referenced using the Scrubber software (BioLogic Software, Australia). Responses at equilibrium for each analyte were fitted to a 1:1 steady-state affinity model that was available within Scrubber.

[3] = Determined by SPR, triplicates ± SD, 25°C, pH 7.4

| ΔT m (hENPP1 [1]; compounds at 100 µM) | Kd (hENPP1 [2]; [3]) [nM] | Kd (hENPP1 [2]; SPR) [nM] | ΔT m (hENPP1 [1]; tested at 10 µM) | Tm (hENPP1 [1]; DSF melting curve, Supplementary Fig. S6) | SMILES |
| --- | --- | --- | --- | --- | --- |
| +3.3 | 56 ± 3 |  |  |  | Nc1ncnc2c1ncn2[C@@H]1O[C@H](COP(=O)(O)OP(=O)(O)O)[C@@H](O)[C@H]1O [ADP] |
| +1.8 | 1100 ± 300 | > 1000 |  |  | O=c1ccn([C@@H]2O[C@H](COP(=O)(O)O)[C@@H](O)[C@H]2O)c(=O)[nH]1 [UMP] |
|  | 100 ± 20 |  |  |  | COc1ccc2c(Oc3ccc(NS(N)(=O)=O)cc3)ccnc2c1 [Ex54] |
|  | 1300 ± 300 | 1300 | +1.2 |  | Nc1nc2c(ncn2[C@@H]2O[C@@H]3COP(=O)(O)O[C@H]4[C@@H](O)[C@H](n5cnc6c(N)ncnc65)O[C@@H]4COP(=O)(O)O[C@H]3[C@H]2O)c(=O)[nH]1 [3′3′-cGAMP] |
| +1.0 | 470 ± 60 |  |  | 60.34 (+/-0.03) | Nc1nc(=O)c2ncn([C@@H]3O[C@H](COP(=O)(O)O)[C@@H](O)[C@H]3O)c2[nH]1 [GMP] |
| +4.5 | 55 ± 6 |  |  |  | COc1cc2ncnc(N3CCC(CNS(N)(=O)=O)CC3)c2cc1OC [QPS2] |
| +1.2 | 1800 ± 300 | > 1000 |  |  | Cc1cn([C@H]2C[C@H](O)[C@@H](COP(=O)(O)O)O2)c(=O)[nH]c1=O [TMP] |
| +2.1 | 1500 ± 300 | > 1000 |  |  | Nc1ccn([C@@H]2O[C@H](COP(=O)(O)O)[C@@H](O)[C@H]2O)c(=O)n1 [CMP] |
| +2.7 | 103 ± 8 |  |  |  | Nc1ncnc2c1ncn2[C@@H]1O[C@H](COP(=O)(O)O)[C@@H](O)[C@H]1O [AMP] |
